Reference: ChEMBL document CHEMBL1129068, “Structure-activity relationships of the antimalarial agent artemisinin. 5. Analogs of 10-deoxoartemisinin substituted at C-3 and C-9” (J Med Chem, 1996)

Assays:
Plasmodium falciparum [1] = assay: Relative in vitro activity compared to artemisinin against Plasmodium falciparum D6 (Sierra Leone); assay type: functional
Plasmodium falciparum [2] = assay: Relative in vitro activity compared to artemisinin against Plasmodium falciparum Indochina W2; assay type: functional

## CC[C@H]1CO[C@@H]2O[C@@]3(C)CC[C@H]4[C@H](C)CC[C@@H]1[C@@]24OO3
Plasmodium falciparum [1]
  Relative activity: 914
Plasmodium falciparum [2]
  Relative activity: 466

## C[C@@H]1CC[C@H]2CCO[C@@H]3O[C@@]4(CCc5ccccc5)CC[C@@H]1[C@@]23OO4
Plasmodium falciparum [1]
  Relative activity: 6
Plasmodium falciparum [2]
  Relative activity: 2

## C[C@@H]1CC[C@H]2[C@@H](C)CO[C@@H]3O[C@]4(C)CC[C@@H]1[C@]32OO4 [DEOXOARTEMISININ]
Plasmodium falciparum [1]
  Relative activity: 659
Plasmodium falciparum [2]
  Relative activity: 567

## CCCC[C@@]12CC[C@H]3[C@H](C)CC[C@H]4CCO[C@H](O1)[C@]43OO2
Plasmodium falciparum [1]
  Relative activity: 653
Plasmodium falciparum [2]
  Relative activity: 556

## CC(C)C[C@@]12CC[C@H]3[C@H](C)CC[C@H]4CCO[C@H](O1)[C@]43OO2
Plasmodium falciparum [1]
  Relative activity: 183
Plasmodium falciparum [2]
  Relative activity: 250

## CCC[C@H]1CO[C@@H]2O[C@@]3(C)CC[C@H]4[C@H](C)CC[C@@H]1[C@@]24OO3
Plasmodium falciparum [1]
  Relative activity: 473
Plasmodium falciparum [2]
  Relative activity: 550

## CCC[C@@]12CC[C@H]3[C@H](C)CC[C@H]4CCO[C@H](O1)[C@]43OO2
Plasmodium falciparum [1]
  Relative activity: 722
Plasmodium falciparum [2]
  Relative activity: 685

## C[C@@H]1CC[C@H]2CCO[C@@H]3O[C@@]4(C)CC[C@@H]1[C@@]23OO4
Plasmodium falciparum [1]
  Relative activity: 237
Plasmodium falciparum [2]
  Relative activity: 190

## C[C@@H]1CC[C@H]2CCO[C@@H]3O[C@@]4(CCCc5ccc(Cl)cc5)CC[C@@H]1[C@@]23OO4
Plasmodium falciparum [1]
  Relative activity: 13
Plasmodium falciparum [2]
  Relative activity: 28

## CC[C@@]12CC[C@H]3[C@H](C)CC[C@H]4CCO[C@H](O1)[C@]43OO2
Plasmodium falciparum [1]
  Relative activity: 10
Plasmodium falciparum [2]
  Relative activity: 10

## C[C@@H]1CC[C@H]2CCO[C@@H]3O[C@@]4(CCC(=O)O)CC[C@@H]1[C@@]23OO4
Plasmodium falciparum [1]
  Relative activity: 0.09
Plasmodium falciparum [2]
  Relative activity: 0.09

## CCCCC[C@H]1CO[C@@H]2O[C@@]3(C)CC[C@H]4[C@H](C)CC[C@@H]1[C@@]24OO3
Plasmodium falciparum [1]
  Relative activity: 170
Plasmodium falciparum [2]
  Relative activity: 145

## CCOC(=O)CC[C@@]12CC[C@H]3[C@H](C)CC[C@H]4CCO[C@H](O1)[C@]43OO2
Plasmodium falciparum [1]
  Relative activity: 422
Plasmodium falciparum [2]
  Relative activity: 506

## CCCC[C@H]1CO[C@@H]2O[C@@]3(C)CC[C@H]4[C@H](C)CC[C@@H]1[C@@]24OO3
Plasmodium falciparum [1]
  Relative activity: 5826
Plasmodium falciparum [2]
  Relative activity: 2090

## C[C@@H]1CC[C@H]2[C@@H](CCCc3ccc(Cl)cc3)CO[C@@H]3O[C@@]4(C)CC[C@@H]1[C@]32OO4
Plasmodium falciparum [1]
  Relative activity: 6991
Plasmodium falciparum [2]
  Relative activity: 3317

## C[C@@H]1CC[C@H]2CCO[C@@H]3O[C@@]4(CCCCc5ccccc5)CC[C@@H]1[C@@]23OO4
Plasmodium falciparum [1]
  Relative activity: 336
Plasmodium falciparum [2]
  Relative activity: 380

## C[C@@H]1CC[C@H]2[C@@H](CCCc3ccccc3)CO[C@@H]3O[C@@]4(C)CC[C@@H]1[C@]32OO4
Plasmodium falciparum [1]
  Relative activity: 5073
Plasmodium falciparum [2]
  Relative activity: 2506
